From PubChem BioAssay (NCI) come the findings set out here.

Where “and” joins values, the source holds several entries; their conditions need not be identical. Equal values may be shown once.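 Where inhibition never reached the appropriate level, the endpoint shown equals the highest concentration tested. Otherwise, values were interpolated linearly from a five-concentration, 48-hour dose response in 96-well plates. Abbreviation: GI50, concentration required for 50% inhibition of growth. TGI: total growth inhibition.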

What all share (experiment): NCI anticancer screen, dose series, 48 h
In assay [1] the test system is M14 melanoma.
Assay [2] has as its system SR leukemia.
For assay [3], the system named is NCI-H226 lung.
Assay [4] relates to SK-OV-3 ovarian.
Assay [5] relates to U251 CNS.
Assay [6] relates to CCRF-CEM leukemia.
Assay [7] concerns K-562 leukemia.
Assay [8] deals with UACC-62 melanoma.
Assay [9] has as its system SF-295 CNS.
Assay [10] relates to MALME-3M melanoma.

In the case of `COc1cc(-c2c(C#N)c(N)nc(N3CCOCC3)c2C#N)cc(OC)c1OC`, the GI50 in assay [1] is more than 100 µM; in assay [2] it was 13.4 µM; in assay [3] it was more than 100 µM; in assay [4], 81.1 µM; in assay [5], more than 100 µM; in assay [6], more than 100 µM. Further, the GI50 is more than 100 µM in assay [7], 36.9 µM in assay [8] and more than 100 µM in assay [9]. The TGI in assay [1] is more than 100 µM; in [2] it was 40.2 µM; in assay [3] it was more than 100 µM; in assay [4], more than 100 µM; in [5], more than 100 µM; in [6] it was more than 100 µM. For the same molecule, the TGI in [7], in assay [8] and in assay [9] was more than 100 µM in each case.
`CCOc1cccc(-c2nc(N)nc(Nc3ccccc3SSc3ccccc3Nc3nc(N)nc(-c4cccc(OCC)c4)n3)n2)c1`: the GI50 in [1] is 4.1 µM; in assay [3], 4.5 µM; in assay [4], 4.87 µM; in assay [10] it was 5.63 µM; in assay [6] it was 2.2 µM; in [7], 3.33 µM. The GI50 in assay [8] was 2.28 µM; in assay [9] it was 3.92 µM. The TGI in [1], in [3], in [4], in assay [10], in assay [6] and in assay [7] was more than 100 µM throughout. Also, the figures for the TGI in [8] and in assay [9] were 5.29 µM and more than 100 µM, respectively.
For the molecule `Cc1ccc2c(c1)S(=O)(=O)c1ccc3ccccc3c1N2`, the TGI in [1] is more than 100 µM; in assay [2], 69.5 µM; in [3] it was more than 100 µM; in assay [4], more than 100 µM; in [5], more than 100 µM; in assay [6], more than 100 µM. For the same molecule, the TGI in assay [7], in [8] and in assay [9] was more than 100 µM each time.
For the molecule `COC1=CC(c2ccc[nH]2)=N/C1=C\c1[nH]c(C)c(C(=O)CCCCC(=O)Oc2ccc3c(c2)CCC2C3CC[C@]3(C)[C@@H](O)CC[C@@H]23)c1C` (some centres not stated), the GI50 in [1] was 4.78 µM; in [2], 3.21 µM; in [3], 8.88 µM; in assay [4] it was more than 100 µM; in [5], 7.79 µM; in [6], 0.668 µM. The figures for the GI50 in [8] and in [9] were 3.58 µM and more than 100 µM, respectively. In addition, the TGI in assay [1], in assay [2], in [3], in assay [4], in [5] and in assay [6] was more than 100 µM each time. Besides, the TGI in [8] and in assay [9] was more than 100 µM each time.
For `Cc1ccccc1-n1c2nc(=O)n(C)c(=O)c-2nc2ccccc21`, the TGI was 25.4 µM in assay [1]; 45 µM in assay [3]; more than 100 µM in assay [4]; 16.8 µM in assay [10]; 33.2 µM in assay [5]; 40.4 µM in assay [6]. For the same molecule, the TGI amounted to 43.6 µM in assay [7], 9.78 µM in assay [8] and 27.5 µM in assay [9].
Consider `COc1cc(/C=C2\C[C@H]3[C@@H]4CC=C5C[C@@H](O)CC[C@]5(C)[C@H]4CC[C@]3(C)[C@H]2O)ccc1OCCCn1ccnc1`, for which the GI50 in assay [3] is 4.09 µM; in assay [5], 0.923 µM; in [7], 2.69 µM; in [8], 1.59 µM; in [9], 1.55 µM. The TGI in [3] was 15.2 µM; in assay [5], 1.72 µM; in [7] it was more than 50 µM; in [8] it was 6.65 µM; in [9], 6.32 µM.
Consider `COc1cc([N+](=O)[O-])c(OC)cc1-c1nc2sc(Cl)cn2c1/C=N/NC1=NCCN1`, for which the GI50 was 1.39 µM in assay [1]; 0.228 µM in assay [2]; 1.88 µM in assay [4]; 1.65 µM in assay [5]; 3.56 µM in assay [7]; 2.74 µM in [9]. Moreover, the TGI in [1] was 2.8 µM; in assay [2] it was 0.45 µM; in [4] it was 3.48 µM; in assay [5], 3.02 µM; in [7], more than 100 µM; in assay [9] it was 52.8 µM.
Turning to `CC(=O)NC1C(OCc2ccccc2)OC(COC(=O)CCCCCCCCCCNc2ccc([N+](=O)[O-])c3[nH]c4ccccc4c(=O)c23)C(O)C1OC(C)C(=O)NC(C)C(=O)NC(CCC(N)=O)C(=O)OCc1ccccc1` (configuration not stated), the TGI in [1], in assay [2], in assay [3], in [4], in assay [5] and in [7] was more than 100 µM each time. Besides, the TGI in assay [8] and in [9] was more than 100 µM in each case.
As for `COC(=O)C1=C(C(=O)OC)C2(C)Nc3ccccc3C2=C(c2ccccc2)C1` (configuration not stated), the TGI worked out at 31.8 µM in [1]; 37.1 µM in assay [10]; 41.6 µM in assay [5]; 47.4 µM in [6]; 47.8 µM in assay [7]; 38.5 µM in assay [8]. This molecule showed a TGI in assay [9] of 58 µM.
In the case of `CCNC(=O)O/N=C1\CCC2[C@@H]3CC=C4C[C@@H](OC5CCCCO5)CC[C@]4(C)C3CC[C@]12C` (some centres not stated), the TGI in assay [4] amounted to 17.3 µM; in [5], 4.29 µM; in assay [8], 3.94 µM; in assay [9] it was 7.11 µM.
On to `COc1cc2c(cc1OC)C1Cc3cc(OC)c(OC)cc3C(C2)N1C`, for which the TGI was more than 100 µM in assay [1]; more than 75 µM in assay [3]; more than 75 µM in assay [4]; more than 100 µM in assay [10]; more than 100 µM in assay [5]; more than 100 µM in [6]. Moreover, the TGI in assay [7] is more than 100 µM; in assay [8] it was more than 75 µM; in assay [9], more than 100 µM. Moreover, the GI50 in assay [6] was 27.4 µM and > 100 µM.
`COc1ccccc1NC(=O)c1nc2ccc([N+](=O)[O-])cc2nc1C`: the TGI in assay [1], in [3], in [4], in assay [10], in assay [5] and in [6] was more than 100 µM throughout. The TGI in assay [7] and in assay [8] was more than 100 µM in each case.
